{"source": "patent US10881679B2", "about": "“Application of a phillyrin/phillygeninin composition in preparing a medicine or health care product for alleviating or/and treating viral diseases, and medicine or health care product for treating viral diseases” (priority 2014, dated 2021)", "key": {"Vero cells": {"system": "Vero cells", "test": "Cytotoxicity test (MTT) on Vero cells", "format": "cell-based, African green monkey", "conditions": "72 h", "protocol": "Cytotoxicity test: the drugs were diluted according to the concentrations shown in table 1-1 for determination of cytotoxicity. […] In addition, 6 wells were set up as normal control group (without drugs) while another 6 pores as blank control group (medium only). Cells were grown in a 37° C. incubator under 5% CO2. […] After 72 h, 20 μL MTT solution (5 mg·mL^−1) was added into each well to continue incubation for 4 h. The culture medium in each well was sucked and discarded, 100 μL DMSO was added to each well. Then the culture was shaken for 5 min, measured OD value at 492 nm to calculate the cell survival ratio. The cell survival ratio was analyzed using a Probit regression model in SPSS 18.0 statistical software, and the maximal nontoxic concentration (TC0) and median toxic concentration (TC50) of drugs against Vero cells were calculated."}, "influenza virus [1]": {"system": "influenza virus", "test": "Impact on virus-induced cytopathic effect in Vero cells (MTT): influenza virus", "format": "cell-based"}, "[2]": {"system": "respiratory syncytial virus (RSV)", "test": "Impact on virus-induced cytopathic effect in Vero cells (MTT): RSV", "format": "cell-based", "conditions": "RSV 100TCID50, Vero, 72 h; drug g/L as Table 1-2"}, "enterovirus EV71": {"system": "enterovirus EV71", "test": "Impact on virus-induced cytopathic effect in Vero cells (MTT): EV71", "format": "cell-based", "conditions": "EV71 100TCID50, Vero, 72 h; drug g/L as Table 1-2"}, "parainfluenza virus": {"system": "parainfluenza virus", "format": "in vivo, Kunming mice", "conditions": "13.0 mg/kg/d i.g. 5 days"}, "influenza virus [3]": {"system": "influenza virus", "format": "in vivo, Kunming mice", "conditions": "13.0 mg/kg/d i.g. 5 days"}, "[4]": {"system": "sweat gland epithelial cells of rat paws", "test": "Sweat secretion of rat paws (histomorphological observation method)", "format": "in vivo, Wistar rats", "conditions": "dose not given; i.g., 1 h after administration", "text": "This test is based on a mechanism that when a rat is in an excited state, in addition to the increase of sweat secretion of sweat glands, the morphology of sweat gland epithelial cells changes accordingly. Under an optical microscope, it can be seen that the sweat gland epithelial cell vacuoles increase in number and expand. Under an electron microscope, such expanded vacuoles appear to be mitochondria in the sweat gland epithelial cell swelling, breakage and fusion and expansion of secretory vesicle. Therefore, through histomorphological observation of sweat gland epithelial tissue of a rat paw, secretory activities of the sweat gland can be known.\n300 Wistar rats with equal male and female number, weighing 120˜160 g were used. These rats were randomly divided into 30 groups by weight and gender: control groups (0.5% of methyl cellulose), phillygeninin groups, phillyrin groups, low, medium and high dose groups (2.5, 5, 10 mg/kg) of phillyrin/phillygeninin compositions A and B separately, and positive drug pilocarpine groups (35 mg/kg). Each group has 10 rats, the test is repeated 3 times for each group. Pilocarpine solution was administered by subcutaneous injection, the remaining groups were subjected to intragastric administration. After administration of the 0.5% of methyl cellulose in the control group for one hour, after administration of the pilocarpine in the positive drug group for 30 min, and after administration of the phillyrin, the phillygeninin and the phillyrin/phillygeninin composition for one hour, the right hind limb was instantly cut off at the ankle joint to immediately take down the footpad of the right hind limb and placed into 10% of formaldehyde solution. The footpads were fixed, dehydrated, embedded, sliced and stained with HE by using conventional methods. Changes in sweat gland epithelial cells of the rat paws from each group were observed under an optical microscope, to mainly observe the percentage of vacuolization. The differences among the various groups was performed through X^2 test for statistical analysis. The above test was repeated 3 times. Percentage of vacuolization=(the number of vacuolized sweat glands)/(the number of sweat glands observed)×100%."}, "[5]": {"system": "rat fever induced by beer yeast", "test": "Rat fever induced by beer yeast (Saccharomyces cerevisiae)", "format": "in vivo, Wistar rats", "conditions": "10 mg/kg i.g.", "protocol": "Male Wistar rats with a weight of 180˜200 g were used. Normal anal temperature of each rat was measured twice (at a certain interval) with a WSC-411P portable digital thermometer, and a mean of the two measurement values was taken as a normal body temperature of the rat. Then, 300 rats with body temperature at 36.5˜38° C. were selected and randomly divided into 30 groups by weight: model groups (0.5% methyl cellulose), phillyrin/phillygeninin compositions A and B that are divided into low, medium and high dose groups (2.5, 5, 10 mg/kg) respectively, phillyrin groups (13 mg/kg), phillygeninin groups (13 mg/kg), and positive drug paracetamol groups (100 mg/kg). Each group has 10 rates, and the test is repeated 3 times for each group. 10 mL/kg of 10% fresh Saccharomyces cerevisiae suspension was subcutaneously injected to the back of the rats of each group to induce fever. After administration of 10% fresh Saccharomyces cerevisiae suspension for 6.0 h, the phillyrin/phillygeninin composition and the paracetamol positive drug were administered by intragastric administration, and the same volume of 0.5% methyl cellulose is administrated to the model group by intragastric administration. Rectal temperatures were respectively measured at 1, 2, 3 and 4 h after the administration. Changes in the body temperature were observed and difference between the groups was compared by inter-group t test processing through antipyretic percentage. The above test was repeated totally 3 times."}}, "note": "Read-outs that look alike come from different tables or passages of the source. Marks after values point to notes of the source that are not given here.", "data": [{"smiles": "COc1cc([C@H]2OC[C@H]3[C@@H]2CO[C@H]3c2ccc(OC)c(OC)c2)ccc1O", "note": "[Phillygeninin, phillygeninin]", "values": [{"measurement": "half toxic concentration (TC50)", "setting": "Vero cells", "value": 297, "unit": "µg/mL"}, {"measurement": "maximal non-toxic concentration (TC0)", "setting": "Vero cells", "value": 0.011, "unit": "g/L"}, {"measurement": "antiviral effective rate (ER %)", "setting": "influenza virus [1]", "value": "75.35** %"}, {"measurement": "antiviral effective rate (ER %)", "setting": "[2]", "value": "80.88** %"}, {"measurement": "antiviral effective rate (ER %)", "setting": "enterovirus EV71", "value": "75.86** %"}, {"measurement": "Lung index", "setting": "parainfluenza virus", "value": "1.357 ± 0.050"}, {"measurement": "Lung index inhibition rate", "setting": "parainfluenza virus", "value": 14.69}, {"measurement": "Hemagglutination titer (InX)", "setting": "influenza virus [3]", "value": "22.61 ± 1.059"}, {"measurement": "Inhibition rate (%) of hemagglutination titer", "setting": "influenza virus [3]", "value": 30.22, "unit": "%"}, {"measurement": "Number of sweat glands of vacuole", "setting": "[4]", "value": 79}, {"measurement": "percentage of vacuolization (%)", "setting": "[4]", "value": "20.26** %"}, {"measurement": "Body temperature", "setting": "[5]; 1 h after administration", "value": "39.31 ± 0.48", "unit": "°C"}, {"measurement": "antipyretic percentage (%)", "setting": "[5]; 1 h after administration", "value": "−0.33 ± 0.41", "unit": "%"}, {"measurement": "Body temperature", "setting": "[5]; 2 h after administration", "value": "39.04 ± 0.45", "unit": "°C"}, {"measurement": "antipyretic percentage (%)", "setting": "[5]; 2 h after administration", "value": "−0.69 ± 0.93", "unit": "%"}, {"measurement": "Body temperature", "setting": "[5]; 3 h after administration", "value": "38.91 ± 0.40", "unit": "°C"}, {"measurement": "antipyretic percentage (%)", "setting": "[5]; 3 h after administration", "value": "−1.03 ± 1.18", "unit": "%"}, {"measurement": "Body temperature", "setting": "[5]; 4 h after administration", "value": "38.70 ± 0.31", "unit": "°C"}, {"measurement": "antipyretic percentage (%)", "setting": "[5]; 4 h after administration", "value": "−1.55 ± 1.23", "unit": "%"}]}, {"smiles": "COc1ccc([C@H]2OCC3C2CO[C@H]3c2ccc(O[C@@H]3OC(CO)[C@@H](O)[C@H](O)C3O)c(OC)c2)cc1OC", "note": "(some centres unmarked) [phillyrin]", "values": [{"measurement": "half toxic concentration (TC50)", "setting": "Vero cells", "value": 550, "unit": "µg/mL"}, {"measurement": "maximal non-toxic concentration (TC0)", "setting": "Vero cells", "value": 0.0066, "unit": "g/L"}, {"measurement": "antiviral effective rate (ER %)", "setting": "influenza virus [1]; influenza virus 100TCID50, Vero, 72 h, drug g/L (Table 1-2): phillyrin 0.01, Phillygeninin 0.02, compositions A, B 0.01, Ribavirin 0.70, oseltamivir phosphate 0.30", "value": "75.38** %"}, {"measurement": "antiviral effective rate (ER %)", "setting": "[2]", "value": "80.40** %"}, {"measurement": "antiviral effective rate (ER %)", "setting": "enterovirus EV71", "value": "84.85** %"}, {"measurement": "Lung index", "setting": "parainfluenza virus", "value": "1.335 ± 0.062"}, {"measurement": "Lung index inhibition rate", "setting": "parainfluenza virus", "value": 16.10}, {"measurement": "Hemagglutination titer (InX)", "setting": "influenza virus [3]", "value": "22.06 ± 1.120"}, {"measurement": "Inhibition rate (%) of hemagglutination titer", "setting": "influenza virus [3]", "value": 31.90, "unit": "%"}, {"measurement": "Number of sweat glands of vacuole", "setting": "[4]", "value": 86}, {"measurement": "percentage of vacuolization (%)", "setting": "[4]", "value": "22.15** %"}, {"measurement": "Body temperature", "setting": "[5]; 1 h after administration", "value": "39.13 ± 0.52", "unit": "°C"}, {"measurement": "antipyretic percentage (%)", "setting": "[5]; 1 h after administration", "value": "−0.60 ± 0.39", "unit": "%"}, {"measurement": "Body temperature", "setting": "[5]; 2 h after administration", "value": "38.77 ± 0.42", "unit": "°C"}, {"measurement": "antipyretic percentage (%)", "setting": "[5]; 2 h after administration", "value": "−0.92 ± 0.93", "unit": "%"}, {"measurement": "Body temperature", "setting": "[5]; 3 h after administration", "value": "38.63 ± 0.40", "unit": "°C"}, {"measurement": "antipyretic percentage (%)", "setting": "[5]; 3 h after administration", "value": "−1.29 ± 1.18", "unit": "%"}, {"measurement": "Body temperature", "setting": "[5]; 4 h after administration", "value": "38.46 ± 0.31", "unit": "°C"}, {"measurement": "antipyretic percentage (%)", "setting": "[5]; 4 h after administration", "value": "−1.70 ± 1.23", "unit": "%"}]}]}
